In US20180127360A1 (Elé Corporation, priority 2016, published 2018):

Experiment: Surface tension, du Nouy ring interfacial tensiometer
Format: physicochemical
Settings: 25° C.
Method: Surface tension measurements were taken on solutions made from the mixture prepared in Example 1(C) using a du Nouy ring interfacial tensiometer, equipped with a six-cm circumference platinum-iridium ring. A series of test solutions at different concentrations were prepared and their surface tension measured at 25° C. For each test concentration, the ring is slowly drawn out of the liquid. The surface tension is equal to the force required to draw the ring completely out of the liquid, divided by twice the circumference of the ring. […] The surface tension at the CMC was 29.6 dyne/cm.

CCCCCCCCCCCCNCCC(=O)O.N=C(N)NCCCC(N)C(=O)O [Example 1(C)]
surface tension at the CMC: 29.6 dyne/cm
Critical Micelle Concentration (CMC) (series of test solutions at different concentrations): 2.46 millimoles per liter
